Legend:
BTK = BTK (Homo sapiens, UniProt Q06187); assay: BTK Kinase Test; assay type: biochemical; details: BTK kinase inhibitory activity; enzyme with compound 30 min, ATP 50 μM, ULight poly GT substrate
Method: Dilute 350 ng/uL BTK mother solution with kinase buffer solution (50 mM HEPES, 10 mM MgCl2, 2 mM DTT, 1 mM EGTA, 0.01% Tween 20), and add 6 μL 1.67×0.134 ng/μL working solution (final concentration 0.08 ng/μL), using the nanoliter sampler, add different compounds dissolved by DMSO into the pores, so that the final concentration of the compound is 1000 nM-0.244 nM, and the final concentration of the positive drug is 50 nM-0.0122 nM. Four times the gradient, a total of seven concentrations are available. At the same time, set up blank control pores (without enzyme) and negative control pores (with enzyme, with solvent DMSO), and set up two double pores. After the enzyme reacts with compound or solvent for 30 min, 5×250 μM ATP (final concentration is 50 μM) and 5×0.5 μM Substrate (final concentration 0.1 μμM. ULight poly GT), mix at 1:1, 4 per hole μL is added into the hole; after sealing, add […] to each hole after reacting at room temperature for 2 hours μL 4×8 nM detection reagent (final concentration is 2 nM, Ab), incubate at room temperature for 1 hour; PE instrument reading board (excitation […], emission 665 nm). Calculate the inhibition rate and calculate the IC50 value.

[1] = test system: Diffuse large B cell lymphoma cell strain TMD-8; assay: Tumor Cell Proliferation Inhibition Assay (CellTiter-Glo); assay type: cell-based; details: Homo sapiens, TMD8; TMD-8 cells, incubated with compound 72 hours, 10% fetal calf serum, ATP content
Method: Cell viability was evaluated by measuring a content of triphosadenine (ATP) by using CellTiter-Glo luminescent cell viability assay kit method (Promega, #G7572, Madison, WI). Diffuse large B cell lymphoma cell strain TMD-8 cell strain is purchased from American Type Culture Collection (ATCC). After the cells were digested from a cell culture dish by pancreatin and re-suspended by DPBS culture medium, a Scepter automatic cell counter (Millipore, #PHCC00000) was used for counting to measure a cell density. The cells were diluted to be a solution containing 44,000 cells per milliliter. The cell solution with the adjusted density was added into a cell assay plate with 90 μl per well. The well plate was placed to an incubator with 5% CO2 at 37° C. to be incubated for 24 hours and then added with the compound to be tested with different concentrations. The cells and the compound were together incubated for 72 hours in the presence of 10% fetal calf serum. The content of ATP was measured by using CellTiter-Glo® Luminescent Cell Viability Assay kit (referring to manufacturer's instruction) to evaluate the inhibition to the cell growth. Briefly speaking, each well was added with 30 μl of CellTiter-Glo® reagent, the plate was shaken for 10 minutes to induce the cells to be lysed, and fluorescence signal was detected and recorded by fluorescence/chemiluminescence analyzer Fluoroskan Ascent FL (Thermo Scientific Fluoroskan Ascent FL). The maximal signal value was obtained from cells processed by dimethyl sulfoxide (DMSO) for 72 or 120 hours. The minimal signal value obtained from separate culture medium (wherein the number of cells was zero) was defined as 0. Inhibition ratio %=(maximal signal value−compound signal value)/(maximal signal value−minimal signal value)×100%. The data was processed by using GraphPad Prism V5.0 (GraphPad Software, San Diego, CA) software. IC50 value was fitted and calculated via S-shaped dose-response curve.

Sequence of BTK (Q06187 whole entry): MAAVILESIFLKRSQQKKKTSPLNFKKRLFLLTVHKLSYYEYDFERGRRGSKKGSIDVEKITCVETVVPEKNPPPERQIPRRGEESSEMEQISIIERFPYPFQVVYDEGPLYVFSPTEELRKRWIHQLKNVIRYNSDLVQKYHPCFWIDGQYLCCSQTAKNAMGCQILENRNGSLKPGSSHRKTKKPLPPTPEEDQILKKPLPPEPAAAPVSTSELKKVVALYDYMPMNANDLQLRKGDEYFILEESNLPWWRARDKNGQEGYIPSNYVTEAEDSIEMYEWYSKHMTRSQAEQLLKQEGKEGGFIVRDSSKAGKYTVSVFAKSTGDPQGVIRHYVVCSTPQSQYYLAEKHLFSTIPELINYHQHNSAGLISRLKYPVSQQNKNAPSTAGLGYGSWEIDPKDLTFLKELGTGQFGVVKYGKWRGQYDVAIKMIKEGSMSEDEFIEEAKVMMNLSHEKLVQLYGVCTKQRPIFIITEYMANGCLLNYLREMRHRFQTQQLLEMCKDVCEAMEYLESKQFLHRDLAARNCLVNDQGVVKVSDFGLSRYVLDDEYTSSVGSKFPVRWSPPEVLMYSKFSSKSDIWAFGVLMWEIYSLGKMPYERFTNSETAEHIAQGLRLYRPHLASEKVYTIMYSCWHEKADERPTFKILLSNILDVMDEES

IC50 (BTK) [nM] | IC50 [1] [nM] | Molecule
≤ 10 | ≤ 10 | C=CC(=O)N1CCC(c2nc(-c3ccc(Oc4ccccc4)cc3)c(C(N)=O)c3[nH]ccc23)CC1 [Compound 25, 4-(1-acryloylpiperidin-4-yl)-6-(4-phenoxyphenyl)-1H-pyrrolo [3,2-c]pyridine-7-carboxamide]
≤ 10 | ≤ 10 | C=CC(=O)N1CCC(c2ncc(C(N)=O)c3[nH]c(=O)[nH]c23)CC1 [Compound 40, 4-(1-acryloylpiperidin-4-yl)-2-oxo-2,3-dihydro-1H-imidazo[4,5-c]pyridine-7-carboxamide]
≤ 10 | – | C=CC(=O)N1CCC(c2nc(-c3ccc(Oc4ccccc4)cc3)c(C(N)=O)c3[nH]c(=O)[nH]c23)CC1 [Compound 20, 4-(1-acryloylpiperidin-4-yl)-2-oxo-6-(4-phenoxyphenyl)-2,3-dihydro-1H-imidazo[4,5-c]pyridine-7-carboxamide]
≤ 10 | – | CC#CC(=O)N[C@H]1CCCN(c2nc(-c3ccc(Oc4ccccc4)cc3)c(C(N)=O)c3[nH]ncc23)C1 [Compound 2, (S)-4-(3-(but-2-ynamido)piperidin-1-yl)-6-(4-phenoxyphenyl)-1H-pyrazolo [4,5-c]pyridine-7-carboxamide]
≤ 10 | ≤ 10 | C=CC(=O)N1CCC[C@@H](c2nc(-c3ccc(Oc4ccccc4)cc3)c(C(N)=O)c3[nH]ccc23)C1 [Compound 27, (R)-4-(1-acryloylpiperidin-3-yl)-6-(4-phenoxyphenyl)-1H-pyrrolo[3,2-c]pyridine-7-carboxamide]
≤ 10 | – | CC#CC(=O)N[C@H]1CCCN(c2nc(-c3ccc(Oc4ccccc4)cc3)c(C(N)=O)c3[nH]c(=O)[nH]c23)C1 [Compound 1, (S)-4-(3-(but-2-ynamido)piperidin-1-yl)-2-oxo-6-(4-phenoxyphenyl)-2,3-dihydro-1H-imidazo[4,5-c]pyridine-7-carboxamide]
≤ 10 | – | C=CC(=O)N[C@H]1CCCN(c2nc(-c3ccc(Oc4ccccc4)cc3)c(C(N)=O)c3[nH]c(=O)[nH]c23)C1 [Compound 3, (S)-4-(3-acrylamidopiperidin-1-yl)-2-oxo-6-(4-phenoxyphenyl)-2,3-dihydro-1H-imidazo[4,5-c]pyridine-7-carboxamide]
≤ 10 | ≤ 10 | C=CC(=O)N1CCC[C@H](c2nc(-c3ccc(Oc4ccccc4)cc3)c(C(N)=O)c3[nH]ccc23)C1 [Compound 26, (S)-4-(1-acryloylpiperidin-3-yl)-6-(4-phenoxyphenyl)-1H-pyrrolo[3,2-c]pyridine-7-carboxamide]
≤ 10 | – | CC#CC(=O)N[C@@H]1CCCN(c2nc(-c3ccc(Oc4ccccc4)cc3)c(C(N)=O)c3[nH]c(=O)[nH]c23)C1 [Compound 6, (R)-4-(3-(but-2-ynamido)piperidin-1-yl)-2-oxo-6-(4-phenoxyphenyl)-2,3-dihydro-1H-imidazo[4,5-c]pyridine-7-carboxamide]
≤ 10 | ≤ 10 | CC#CC(=O)N[C@H]1CCCN(c2ncc(C(N)=O)c3[nH]c(=O)[nH]c23)C1 [Compound 38, (S)-4-(3-(but-2-ynamido)piperidin-1-yl)-2-oxo-2,3-dihydro-1H-imidazo[4,5-c]pyridine-7-carboxamide]
≤ 10 | – | CC#CC(=O)N[C@H]1CCCN(c2nc(-c3ccc(Oc4ccccc4)cc3)c(C(N)=O)c3[nH]cnc23)C1 [Compound 18, (S)-4-(3-(but-2-ynamido)piperidin-1-yl)-6-(4-phenoxyphenyl)-1H-imidazo[4,5-c]pyridine-7-carboxamide]
≤ 10 | – | CC#CC(=O)N[C@@H]1CCCN(c2nc(-c3ccc(Oc4ccccc4)cc3)c(C(N)=O)c3[nH]ccc23)C1 [Compound 24, (R)-4-(3-(but-2-ynamido)piperidin-1-yl)-6-(4-phenoxyphenyl)-1H-pyrrolo[3,2-c]pyridine-7-carboxamide]
≤ 10 | – | CC#CC(=O)N[C@H]1CCCN(c2nc(-c3ccc(Oc4ccccc4)cc3)c(C(N)=O)c3[nH]c(C)nc23)C1 [Compound 19, (S)-4-(3-(but-2-ynamido)piperidin-1-yl)-2-methyl-6-(4-phenoxyphenyl)-1H-imidazo[4,5-c]pyridine-7-carboxamide]
≤ 10 | – | CC#CC(=O)N[C@H]1CCCN(c2ncc(C(N)=O)c3[nH]c(=O)c(=O)[nH]c23)C1 [Compound 28, (S)-5-(3-(but-2-ynamido)piperidin-1-yl)-2,3-dioxo-1,2,3,4-tetrahydropyrido[3,4-b]pyrazine-8-carboxamide]
≤ 10 | ≤ 10 | CC#CC(=O)N[C@H]1CCCN(c2nc(-c3ccc(Oc4ccccc4)cc3)c(C(N)=O)c3[nH]ccc23)C1 [Compound 23, (S)-4-(3-(but-2-ynamido)piperidin-1-yl)-6-(4-phenoxyphenyl)-1H-pyrrolo[3,2-c]pyridine-7-carboxamide]
≤ 10 | – | CC#CC(=O)N[C@@H]1CCN(c2nc(-c3ccc(Oc4ccccc4)cc3)c(C(N)=O)c3[nH]c(=O)[nH]c23)C1 [Compound 9, (R)-4-(3-(but-2-ynamido)pyrrolidin-1-yl)-2-oxo-6-(4-phenoxyphenyl)-2,3-dihydro-1H-imidazo[4,5-c]pyridine-7-carboxamide]
≤ 10 | – | CC#CC(=O)N[C@H]1CCCN(c2ncc(C(N)=O)c3[nH]cnc23)C1 [Compound 36, (S)-4-(3-(but-2-ynamido)piperidin-1-yl)-1H-imidazo[4,5-c]pyridine-7-carboxamide]
≤ 10 | – | CC#CC(=O)N[C@H]1CCN(c2nc(-c3ccc(Oc4ccccc4)cc3)c(C(N)=O)c3[nH]c(=O)[nH]c23)C1 [Compound 5, (S)-4-(3-(but-2-ynamido)pyrrolidin-1-yl)-2-oxo-6-(4-phenoxyphenyl)-2,3-dihydro-1H-imidazo[4,5-c]pyridine-7-carboxamide]

Molecule | IC50 (BTK) [nM] | IC50 [1] [nM]
(S)-4-(3-acrylamidopyrrolidin-1-yl)-2-oxo-6-(4-phenoxyphenyl)-2,3-dihydro-1H-imidazo[4,5-c]pyridine-7-carboxamide [Compound 4] | ≤ 10 | –
(R)-4-(3-acrylamidopiperidin-1-yl)-2-oxo-6-(4-phenoxyphenyl)-2,3-dihydro-1H-imidazo[4,5-c]pyridine-7-carboxamide [Compound 8] | ≤ 10 | –
(R)-4-(3-(but-2-ynamido)piperidin-1-yl)-6-(4-phenoxyphenyl)-1H-pyrazolo [4,3-c]pyridine-7-carboxamide [Compound 7] | ≤ 10 | –

From patent US20240190864A1 (YA THERAPEUTICS INC, priority 2021, published 2024)
